Measurements as given in US20250188068A1, “AMIDO CYCLOPROPYL DERIVATIVES AS LPA RECEPTOR INHIBITORS” (CHIESI FARMACEUTICI S.P.A., priority 2022, published 2025).

tested on: Caco-2 cells monolayers (human colon carcinoma cell line); assay: not given; settings: Caco-2, 60 min, 10 μM, pH 7.4

Row | SMILES | Passive Permeability [×10⁻⁶ cm/s]
1 | Cc1nc(-c2onc(C)c2NC(=O)O[C@H](C)c2ccccc2Cl)ccc1NC(=O)C1C(c2noc(=O)[nH]2)C1(F)F (stereo partly drawn) [Compound 42, (R)-1-(2-chlorophenyl)ethyl (5-(5-(2,2-difluoro-3-(5-oxo-4,5-dihydro-1,2,4-oxadiazol-3-yl)cyclopropane-1-carboxamido)-6-methylpyridin-2-yl)-3-methylisoxazol-4-yl)carbamate] | ≤0.5

biological target: T1, human recombinant LPA1 expressed in CHO cells (Homo sapiens, UniProt Q92633); assay: FLIPR calcium mobilization assay, LPA1 antagonism in CHO-hLPA1 cells; type: cell-based; settings: inhibition of LPA EC80 Ca2+ response, 30 min pre-incubation, range of activity
T1 construct: expressed in transfected cells; host or cells: CHO cells (CHO-hLPA1 cell line)
Procedure: The effectiveness of compounds of the present invention as LPA1 antagonist can be determined at the human recombinant LPA1 expressed in CHO cells, using a FLIPR assay in 384 well format.
CHO-hLPA1 cell lines are cultured in a humidified incubator at 5% CO2 in DMEM/F-12 (1:1) MIXTURE with 2 mM Glutamax, supplemented with 10% of Foetal Bovine Serum, 1 mM Sodium Pyruvate, 11 mM Hepes and 1× Penicillin/Streptomycin. CHO hLPA1 cells are seeded into black walled clear-bottom 384-well plates (#781091, Greiner Bio-One GmbH) at a density of 7,500 cells per well in 50 μl culture media and grown overnight in a 37° C. humidified CO2-incubator. Serial dilutions (1:3 or 1:4, 11 points CRC) of compounds are performed in 100% DMSO at 200× the final concentration. The compounds are diluted 1:50 prior to the experiment with Assay Buffer (20 mM HEPES, 145 mM NaCl, 5 mM KCl, 5.5 mM glucose, 1 mM MgCl2 and 2 mM CaCl2), pH 7.4 containing 0.01% Pluronic F-127) to obtain a solution corresponding to […] the final concentration in the assay (4×, 2% DMSO). The final concentration of DMSO in the assay will be 0.5% in each well. Medium is removed by aspiration and cells are then incubated with 30 μl of a loading solution containing 5 μM of the cytoplasmic Ca2+ indicator Cal-520 AM in Assay Buffer containing 2.5 mM probenecid for 30 min at 37° C. incubator (cell loading). The loaded cell plates are transferred into the FLIPR instrument and calcium responses are monitored during the on-line addition protocols. For testing of compounds, after the cell loading, 10 μl/well of 4× antagonists' solution was added onto the cells. After 30 min pre-incubation (at 37° C.), 10 μl/well of 5× concentrated LPA EC80 was added and Ca2+ mobilization responses was followed during the on-line addition protocol. Intracellular peak fluorescence values subtracted by baseline fluorescence are exported and analysed to determine IC50 values, respectively. The calcium response is expressed as percentage of the maximal inhibition of the EC80 agonist response.
The raw data obtained in unstimulated controls (DMSO, no LPA) are set as “100% inhibition”, while the raw data obtained in negative controls, i.e. in the absence of compounds and stimulating with LPA EC80, are set as “0% inhibition”.
The raw data (peak height expressed as relative fluorescence units) are normalized and transformed into “percent of inhibition”. Curve fitting and pIC50 (−Log IC50) estimations are carried out using a four-parameter logistic model using XLfit Software.

T1 sequence (Q92633 whole entry): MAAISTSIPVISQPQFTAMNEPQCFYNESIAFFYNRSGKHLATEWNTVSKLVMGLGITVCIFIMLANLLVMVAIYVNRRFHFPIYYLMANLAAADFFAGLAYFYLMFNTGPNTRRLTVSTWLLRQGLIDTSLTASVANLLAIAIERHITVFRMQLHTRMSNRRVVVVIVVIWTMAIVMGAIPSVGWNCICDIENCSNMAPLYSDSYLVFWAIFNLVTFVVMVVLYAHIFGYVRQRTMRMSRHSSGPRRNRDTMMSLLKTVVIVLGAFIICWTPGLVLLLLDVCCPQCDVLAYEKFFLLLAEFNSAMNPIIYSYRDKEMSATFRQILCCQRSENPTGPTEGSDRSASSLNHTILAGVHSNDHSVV

Row | SMILES | IC50 [nM]
2 | C[C@@H](OC(=O)Nc1cn(C)nc1-c1ccc(NC(=O)[C@@H]2[C@@H](C(=O)O)C2(F)F)cc1)c1ccccc1Cl [Compound 38, (1S,3S)-3-((4-(4-((((R)-1-(2-chlorophenyl)ethoxy)carbonyl)amino)-1-methyl-1H-pyrazol-3-yl)phenyl)carbamoyl)-2,2-difluorocyclopropane-1-carboxylic acid] | 100 to 200
3 | C[C@@H](OC(=O)Nc1cccn1-c1ccc(NC(=O)[C@@H]2[C@@H](C(=O)O)C2(F)F)cc1)c1ccccc1Cl [Compound 39] | 100 to 200
4 | C[C@@H](OC(=O)Nc1ncoc1-c1ccc(NC(=O)[C@@H]2[C@@H](C(=O)O)C2(F)F)cc1)c1ccccc1Cl [Compound 40, methyl (1S,3S)-3-((4-(4-((((R)-1-(2-chlorophenyl)ethoxy)carbonyl)amino)oxazol-5-yl)phenyl)carbamoyl)-2,2-difluorocyclopropane-1-carboxlic acid] | 100 to 200
5 | Cc1nc(-c2onc(C)c2NC(=O)O[C@H](C)c2ccccc2Cl)ccc1NC(=O)C1C(c2noc(=S)[nH]2)C1(F)F (stereo partly drawn) [Compound 41, (R)-1-(2-chlorophenyl)ethyl (5-(5-(2,2-difluoro-3-(5-thioxo-4,5-dihydro-1,2,4-oxadiazol-3-yl)cyclopropane-1-carboxamido)-6-methylpyridin-2-yl)-3-methylisoxazol-4-yl)carbamate] | < 50
6 | Cc1nc(-c2onc(C)c2NC(=O)O[C@H](C)c2ccccc2Cl)ccc1NC(=O)C1C(c2noc(=O)[nH]2)C1(F)F (stereo partly drawn) [Compound 42, (R)-1-(2-chlorophenyl)ethyl (5-(5-(2,2-difluoro-3-(5-oxo-4,5-dihydro-1,2,4-oxadiazol-3-yl)cyclopropane-1-carboxamido)-6-methylpyridin-2-yl)-3-methylisoxazol-4-yl)carbamate] | < 50
7 | Cc1nc(-c2onc(C)c2NC(=O)O[C@H](C)c2ccccc2Cl)ccc1NC(=O)C1C(c2nsc(=O)[nH]2)C1(F)F (stereo partly drawn) [Compound 43, (R)-1-(2-chlorophenyl)ethyl (5-(5-(2,2-difluoro-3-(5-oxo-4,5-dihydro-1,2,4-thiadiazol-3-yl)cyclopropane-1-carboxamido)-6-methylpyridin-2-yl)-3-methylisoxazol-4-yl)carbamate] | < 50
8 | Cc1nc(-c2onc(C)c2NC(=O)O[C@H](C)c2ccccc2Cl)ccc1NC(=O)[C@@H]1[C@@H](c2n[nH]c(=S)n2C)C1(F)F [Compound 44, (R)-1-(2-chlorophenyl)ethyl (5-(5-((1S,3S)-2,2-difluoro-3-(4-methyl-5-thioxo-4,5-dihydro-1H-1,2,4-triazol-3-yl)cyclopropane-1-carboxamido)-6-methylpyridin-2-yl)-3-methylisoxazol-4-yl)carbamate] | 50 to 100
